From ChEMBL document CHEMBL1201862, “PubChem BioAssay data set” (2004)
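Briefly, cells in 96-well plates were exposed to five compound concentrations for 48 h, and endpoints were estimated by linear interpolation. Here, GI50 denotes the concentration required for 50% inhibition of growth.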 Active and inactive are the calls of the source. No stated cut-off is given here; in the data, active = GI50 up to about 1.1 µM and inactive = higher.

Tests used:
Assay in all cases: NCI tumour cell line growth inhibition, 48 h
COLO 205 = tested on: COLO 205
EKVX = tested on: EKVX
HCT-116 = tested on: HCT-116
K562 = tested on: K562
MOLT-4 = tested on: MOLT-4
NCI-H226 = tested on: NCI-H226
SF-268 = tested on: SF-268
SF-295 = tested on: SF-295
SK-MEL-28 = tested on: SK-MEL-28
SK-MEL-5 = tested on: SK-MEL-5
SN12C = tested on: SN12C
SNB-19 = tested on: SNB-19
SNB-78 = tested on: SNB-78
SR = tested on: SR
UACC-257 = tested on: UACC-257
CAKI-1 = tested on: CAKI-1
NCI-H522 = tested on: NCI-H522
OVCAR-5 = tested on: OVCAR-5
BT-549 = tested on: BT-549
PC-3 = tested on: PC-3

| Structure (SMILES) | GI50 (COLO 205) | GI50 (EKVX) | GI50 (HCT-116) | GI50 (K562) | GI50 (MOLT-4) | GI50 (NCI-H226) | GI50 (SF-268) | GI50 (SF-295) | GI50 (SK-MEL-28) | GI50 (SK-MEL-5) | GI50 (SN12C) | GI50 (SNB-19) | GI50 (SNB-78) | GI50 (SR) | GI50 (UACC-257) | GI50 (CAKI-1) | GI50 (NCI-H522) | GI50 (OVCAR-5) | GI50 (BT-549) | GI50 (PC-3) |
| --- | --- | --- | --- | --- | --- | --- | --- | --- | --- | --- | --- | --- | --- | --- | --- | --- | --- | --- | --- | --- |
| CC(=O)O[C@]12CCCCCC1C1(O)C(O)CCC[C@H]12 (stereo partly drawn) | > 100 µM (inactive) | > 100 µM (inactive) | > 100 µM (inactive) | > 100 µM (inactive) | > 100 µM (inactive) | > 100 µM (inactive) | > 100 µM (inactive) | > 100 µM (inactive) | > 100 µM (inactive) | > 100 µM (inactive) | > 100 µM (inactive) | > 100 µM (inactive) | > 100 µM (inactive) | > 100 µM (inactive) | > 100 µM (inactive) | – | – | – | – | – |
| COC1=CC(=O)C(O)=C(CC2(C)C(C)CCC3(C)C2CCCC3(C)C)C1=O (stereo not drawn) | 5.51 µM (inactive) | 5.83 µM (inactive) | 5.12 µM (inactive) | 2.7 µM (inactive) | 2.4 µM (inactive) | 2.77 µM (inactive) | 4.37 µM (inactive) | 2.89 µM (inactive) | 4.43 µM (inactive) | 3.76 µM (inactive) | 3.7 µM (inactive) | 3.58 µM (inactive) | 18.1 µM (inactive) | 3.11 µM (inactive) | 3.84 µM (inactive) | 3.34 µM (inactive) | 2.7 µM (inactive) | 10.3 µM (inactive) | – | – |
| COc1cccc(/C=C(\NC(C)=O)c2nc3cc(Cl)ccc3[nH]2)c1 | > 100 µM (inactive) | > 100 µM (inactive) | – | > 100 µM (inactive) | > 100 µM (inactive) | – | > 100 µM (inactive) | > 100 µM (inactive) | > 100 µM (inactive) | > 100 µM (inactive) | > 100 µM (inactive) | > 100 µM (inactive) | > 100 µM (inactive) | > 100 µM (inactive) | – | > 100 µM (inactive) | > 100 µM (inactive) | > 100 µM (inactive) | – | – |
| CC(=O)/C(=C\c1cccc([N+](=O)[O-])c1)C(=O)Nc1ccccc1C | – | > 100 µM (inactive) | 57.3 µM (inactive) | 72.4 µM (inactive) | 39.5 µM (inactive) | > 100 µM (inactive) | > 100 µM (inactive) | > 100 µM (inactive) | > 100 µM (inactive) | > 100 µM (inactive) | > 100 µM (inactive) | 94.4 µM (inactive) | > 100 µM (inactive) | 33.6 µM (inactive) | > 100 µM (inactive) | > 100 µM (inactive) | > 100 µM (inactive) | > 100 µM (inactive) | – | – |
| O=C(COC(=O)c1cccc2c(=O)c3ccccc3[nH]c12)Nc1ccc(S(=O)(=O)Nc2ncccn2)cc1 | 59.6 µM (inactive) | 64.1 µM (inactive) | 39.6 µM (inactive) | 38.5 µM (inactive) | 28.4 µM (inactive) | > 100 µM (inactive) | 37 µM (inactive) | 58.9 µM (inactive) | 32.9 µM (inactive) | 82 µM (inactive) | 59.6 µM (inactive) | 38.8 µM (inactive) | 30.6 µM (inactive) | 29 µM (inactive) | 66.1 µM (inactive) | 79.3 µM (inactive) | 24.4 µM (inactive) | 39.3 µM (inactive) | – | – |
| COc1ccc(/C=c2/sc3n(c2=O)NC2(CCC(C)CC2)NN=3)cc1 (stereo not drawn) | > 100 µM (inactive) | > 100 µM (inactive) | > 100 µM (inactive) | > 100 µM (inactive) | > 100 µM (inactive) | > 100 µM (inactive) | > 100 µM (inactive) | > 100 µM (inactive) | > 100 µM (inactive) | 49.7 µM (inactive) | > 100 µM (inactive) | > 100 µM (inactive) | > 100 µM (inactive) | > 100 µM (inactive) | – | > 100 µM (inactive) | > 100 µM (inactive) | > 100 µM (inactive) | – | – |
| CN1C(c2ccccc2)CC(=NOCc2ccccc2)CC1c1ccccc1 (stereo not drawn) | 50.6 µM (inactive) | 41.3 µM (inactive) | 18.5 µM (inactive) | 13.8 µM (inactive) | 23.7 µM (inactive) | 52.8 µM (inactive) | 24.3 µM (inactive) | 44.2 µM (inactive) | 40.8 µM (inactive) | 33.7 µM (inactive) | 44.6 µM (inactive) | 44.3 µM (inactive) | 42.5 µM (inactive) | 13.6 µM (inactive) | 64.7 µM (inactive) | 55 µM (inactive) | 21.8 µM (inactive) | 70.8 µM (inactive) | 16.9 µM (inactive) | 24.7 µM (inactive) |
| Cc1c(Cl)ccc2c1NC(=O)C2(O)CC(=O)c1cccc2ccccc12 (stereo not drawn) | > 100 µM (inactive) | > 100 µM (inactive) | 69.5 µM (inactive) | 85.5 µM (inactive) | 35.2 µM (inactive) | > 100 µM (inactive) | > 100 µM (inactive) | > 100 µM (inactive) | > 100 µM (inactive) | 34 µM (inactive) | > 100 µM (inactive) | 90.8 µM (inactive) | > 100 µM (inactive) | 24.1 µM (inactive) | 98.9 µM (inactive) | 39.4 µM (inactive) | 43.8 µM (inactive) | > 100 µM (inactive) | – | – |
| COc1ccc([Se]c2ccc(OC)cc2OC)c(OC)c1 | 11.4 µM (inactive) | – | 12.1 µM (inactive) | 10.5 µM (inactive) | 5.36 µM (inactive) | 20 µM (inactive) | 35.6 µM (inactive) | 8.57 µM (inactive) | 15.8 µM (inactive) | 22.2 µM (inactive) | 36.4 µM (inactive) | 86.7 µM (inactive) | 22.6 µM (inactive) | 6.22 µM (inactive) | 61.2 µM (inactive) | 19.5 µM (inactive) | 13 µM (inactive) | > 100 µM (inactive) | – | – |
| O=c1c2cccnc2ncn1CCCN1CCCC1 | 97.3 µM (inactive) | > 100 µM (inactive) | > 100 µM (inactive) | > 100 µM (inactive) | > 100 µM (inactive) | 91 µM (inactive) | > 100 µM (inactive) | > 100 µM (inactive) | > 10 µM (inactive) | > 100 µM (inactive) | > 100 µM (inactive) | > 100 µM (inactive) | > 100 µM (inactive) | > 100 µM (inactive) | – | > 100 µM (inactive) | > 100 µM (inactive) | > 100 µM (inactive) | – | – |
| O=C(OCN1C(=O)C2C3C=CC(C2C1=O)C1C2C(=O)N(COC(=O)C4CCCN4)C(=O)C2C31)C1CCCN1 (stereo not drawn) | 59.8 µM (inactive) | > 100 µM (inactive) | 28.8 µM (inactive) | > 67.9 µM (inactive) | 32.3 µM (inactive) | > 100 µM (inactive) | > 51.3 µM (inactive) | > 82.6 µM (inactive) | > 83.9 µM (inactive) | 62.5 µM (inactive) | > 72.3 µM (inactive) | > 100 µM (inactive) | > 100 µM (inactive) | < 0.01 µM (active) | > 79.4 µM (inactive) | > 86.9 µM (inactive) | 78.3 µM (inactive) | > 100 µM (inactive) | – | – |
| CNCC(=O)Nc1ccc2c(c1)C(=O)c1ccc(NC(=O)CNC)cc1C2=O | 2.37 µM (inactive) | – | 1.81 µM (inactive) | 1.96 µM (inactive) | 2.52 µM (inactive) | 7.57 µM (inactive) | – | 5.3 µM (inactive) | 2.54 µM (inactive) | 4.68 µM (inactive) | 3.1 µM (inactive) | – | 3.05 µM (inactive) | 1.96 µM (inactive) | 4.36 µM (inactive) | 5.65 µM (inactive) | 1.59 µM (inactive) | 17.5 µM (inactive) | – | – |
| Cc1ccc(-c2cc(-c3ccco3)c(C#N)c(=O)n2C2OC(OC(=O)c3ccccc3)C(OC(=O)c3ccccc3)C2OC(=O)c2ccccc2)cc1 (stereo not drawn) | > 10 µM (inactive) | > 100 µM (inactive) | 32.1 µM (inactive) | > 100 µM (inactive) | > 100 µM (inactive) | – | 81.3 µM (inactive) | 59 µM (inactive) | > 100 µM (inactive) | – | > 100 µM (inactive) | – | 83.6 µM (inactive) | > 100 µM (inactive) | – | > 100 µM (inactive) | 62.8 µM (inactive) | > 100 µM (inactive) | – | – |
| CCC1(N=[N+]=[N-])C(=O)c2ccccc2N(C)C1=O (stereo not drawn) | > 100 µM (inactive) | > 100 µM (inactive) | > 100 µM (inactive) | > 100 µM (inactive) | > 100 µM (inactive) | – | > 100 µM (inactive) | > 100 µM (inactive) | > 100 µM (inactive) | > 100 µM (inactive) | > 100 µM (inactive) | > 100 µM (inactive) | > 100 µM (inactive) | > 100 µM (inactive) | > 100 µM (inactive) | > 100 µM (inactive) | > 100 µM (inactive) | > 100 µM (inactive) | – | – |
| O=C(O)CNc1cc(-c2ccccc2)nc(NCC(=O)O)n1 | > 100 µM (inactive) | > 100 µM (inactive) | > 100 µM (inactive) | > 100 µM (inactive) | > 100 µM (inactive) | > 100 µM (inactive) | – | > 100 µM (inactive) | 49.5 µM (inactive) | > 100 µM (inactive) | > 100 µM (inactive) | > 100 µM (inactive) | > 100 µM (inactive) | > 100 µM (inactive) | > 100 µM (inactive) | > 100 µM (inactive) | > 100 µM (inactive) | > 100 µM (inactive) | – | – |
